Assay results published in patent publication US20220040304A1, “A COMPOSITION FOR CANCER CELL DEATH AND ITS USE” (Industry-University Cooperation Foundation Hanyang …, priority 2018, published 2022).

Columns and labels:
singlet oxygen = experiment: ROS generation: singlet oxygen measured by decrease of ADPA fluorescence; type: biochemical
Protocol: A ROS-generating effect of the RLuc8-MS protein was confirmed using 100 μL of buffer (50 mM HEPES-KOH, 24° C., pH 7.4) containing RLuc8-MS protein (final concentration: 10 μM), anthracene-9,10-dipropionic acid (ADPA, Abcam., UK; final concentration: 50 μM) whose fluorescence intensity decreases in the presence of singlet oxygen, flavin mononucleotide (FMN) (final concentration: 150 μM) and a Co-h substrate solution. The rate of decrease in fluorescence intensity was measured at the excitation wavelength of 380 nm and the emission wavelength of 430 nm of ADPA using a plate reader.
a ROS-generating effect of the RLuc8-MS protein was measured using RLuc8-MS (final concentration: 10 μM) and ADPA (final concentration: 50 μM) whose fluorescence intensity decreases in the presence of singlet oxygen.
Here, the active oxygen generation rate of each protein was measured using 100 μL of buffer (50 mM HEPES-KOH, 24° C., pH 7.4) containing FMN (final concentration: 150 μM) and a Co-h substrate solution (final concentration: 150 μM).
The rate of decrease in fluorescence intensity was measured at the excitation wavelength of 370 nm and the emission wavelength of 420 nm of DHE using a plate reader. In addition, the rate of decrease in fluorescence intensity was measured at the excitation wavelength of 380 nm and the emission wavelength of 430 nm of ADPA using a plate reader.
(§1) A ROS generation rate was measured using 100 μL of buffer (50 mM HEPES-KOH, 24° C., pH 7.4) containing the KR protein, RLuc8.6-KR protein (final concentration: 10 μM) and ADPA (final concentration: 50 μM) whose fluorescence intensity decreases in the presence of singlet oxygen.
(§2) A ROS generation rate was measured using 100 μL of buffer (50 mM HEPES-KOH, 24° C., pH 7.4) containing MS, RLuc8-MS (final concentration: 10 μM), ADPA (final concentration: 50 μM) whose fluorescence intensity decreases in the presence of singlet oxygen and FMN (final concentration: 150 μM).
After irradiation with light at 10 mW/cm^2 for 30 minutes, the rate of decrease in fluorescence intensity was measured at the excitation wavelength of 380 nm and the emission wavelength of 430 nm of ADPA using a plate reader.
as §1, with “oxygen and a Co-h substrate solution (final concentration: 150 μM).” for “oxygen.”
as §2, with “oxygen,” for “oxygen and”, “150 μM) and a Co-h substrate solution (final concentration: 150” for “150”
The rate of decreasing fluorescence intensity was measured at the excitation wavelength of 380 nm and the emission wavelength of 430 nm of ADPA using a plate reader. […]

MCF-7 cells = experiment: MTT colorimetric change and cell viability after light irradiation; type: cell-based, human; conditions: MCF-7, protein 10 μM 24 hours, light 10 mW/cm^2, no Co-h
Protocol: MCF-7 cells were seeded at 5×10^5 cells/mL in a 96-well plate (SPL Cell Culture Plate, 96 well (SPL, Cat #30096)), and cultured at 37° C. for 24 hours (overnight). After the overnight culture, the cells were washed with FBS & Phenol red-free media (RPMI, Well Gene., Korea, Cat #LM011-02), and 100 μL of an FBS-free medium containing the purified protein (final concentration: 10 μM) was added, followed by reaction at 37° C. for 24 hours. After the reaction for 24 hours, the cells were washed with FBS & Phenol red-free media (RPMI), and then 100 μL of FBS & Phenol red-free media (RPMI) was added again. After light irradiation at 10 mW/cm^2 over time, the cells were washed with FBS & Phenol red-free media (RPMI), and 100 μL of FBS & Phenol red-free media (RPMI) was added again. 10 μL of 3-(4,5-dimethylthiazol-2-yl)-2,5-diphenyltetrazolium bromide (MTT; Cell Biolabs Inc., USA; final concentration: 1×) was added, followed by reaction at 37° C. for 4 hours. 100 μL of a supernatant was removed, and 100 μL of DMSO (Sigma-Aldrich., USA) was added, followed by reaction for 10 minutes. The colorimetric change of MTT according to a protein type treated to the cells and light irradiation time was confirmed, and then cell viability was confirmed by measuring the absorbance intensity at 570 nm using a plate reader.

Which “singlet oxygen generation rate after light irradiation” value (singlet oxygen; 10 mW/cm^2, 30 minutes, no substrate, protein 10 μM, ADPA) does the source give for “MS: first protein MiniSOG, ROS-generating protein (singlet oxygen), expressed from pRSET-MiniSOG, 13 kDa [reference compound]” here?
Its value is “higher singlet oxygen generation rate”.

And the “singlet oxygen generation rate by Co-h reaction after ROS scavenger treatment” value (singlet oxygen; RLuc8-MS 10 μM, Co-h 150 μM 30 minutes, SOD 800 U/ml, sodium azide 100 mM or D-mannitol 100 mM)?
Its value is “lowest when sodium azide was treated”.

And the “cell viability / colorimetric change of MTT with light irradiation time” value (MCF-7 cells)?
Its value is “alive”.

How did the “singlet oxygen generation rate after Co-h substrate reaction” value (singlet oxygen; Co-h 150 μM, 30-min reaction, without light irradiation, protein 10 μM, ADPA) turn out when “RLuc8-MS: fusion protein of RLuc8 and MiniSOG without lead peptide, 53 kDa” was run?
Its value is “highest singlet oxygen generation rate”.

What about the “Co-h concentration until which the singlet oxygen generation rate increased, then constantly maintained” value (singlet oxygen; protein 10 μM, ADPA 50 μM, FMN 150 μM, substrate reaction time 5 minutes) of the same substance?
Its value is 150 µM.

What about the “reaction time with Co-h until which the singlet oxygen generation rate increased, then constantly maintained” value (singlet oxygen; protein 10 μM, Co-h 150 μM, ADPA) of the same substance?
The value was 20 min.

What about the “cell viability / colorimetric change of MTT with light irradiation time” value (MCF-7 cells) of the same substance?
The value was “alive”.
